pIC50: −log10 of the molar value.

A short description of data set [1]: Compound stability in human liver microsomes. It counts as in vitro ADME. Particulars: for half-life: pH 7.4, 37° C., NADPH, read-out: Human T1/2; for CLint scaled: pH 7.4, in vivo CLint extrapolated.
Another data set deals with T1, Aurora-A (h) (Homo sapiens, UniProt O14965).
T1 construct: purchased Millipore UK Ltd (contract assay service)
T1 sequence (O14965 1-403): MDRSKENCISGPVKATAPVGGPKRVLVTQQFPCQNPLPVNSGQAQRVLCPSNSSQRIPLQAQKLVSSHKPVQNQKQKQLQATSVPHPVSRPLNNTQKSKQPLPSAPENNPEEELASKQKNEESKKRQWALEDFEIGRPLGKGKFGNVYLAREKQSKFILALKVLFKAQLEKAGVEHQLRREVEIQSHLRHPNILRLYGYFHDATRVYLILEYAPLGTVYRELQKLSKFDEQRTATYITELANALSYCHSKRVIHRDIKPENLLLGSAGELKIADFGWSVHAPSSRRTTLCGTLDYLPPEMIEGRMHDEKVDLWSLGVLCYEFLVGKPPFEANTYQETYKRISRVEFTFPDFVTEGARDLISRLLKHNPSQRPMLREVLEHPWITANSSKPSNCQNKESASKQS
Put plainly: Aurora-A (h) kinase assay. It counts as biochemical. Here is the method:
Kinase assays can be performed by measurement of incorporation of γ-33P ATP into immobilized myelin basic protein (MBP). High binding white 384 well plates (Greiner) are coated with MBP (Sigma #M-1891) by incubation of 60 μL/well of 20 μg/mL MBP in Tris-buffered saline (TBS; 50 mM Tris pH 8.0, 138 mM NaCl, 2.7 mM KCl) for 24 h at 4° C. Plates are washed 3× with 100 μL TBS. Kinase reactions are carried out in a total volume of 34 μL in kinase buffer (according to the need to make, for example, 5 mM Hepes pH 7.6, 15 mM NaCl, 0.01% bovine gamma globulin (Sigma #I-5506), 10 mM MgCl2, 1 mM DTT, 0.02% TritonX-100). Compound dilutions are performed in DMSO and added to assay wells to a final DMSO concentration of 1%. Each data point is measured in duplicate, and at least two duplicate assays are performed for each individual compound determination. Enzyme is added to final concentrations of 10 nM or 20 nM, for example. A mixture of unlabeled ATP and γ-33P ATP is added to start the reaction (2×10^6 cpm of γ-33P ATP per well (3000 Ci/mmole) and 10 μM unlabeled ATP, typically. The reactions are carried out for 1 h at room temperature with shaking Plates are washed 7× with TBS, followed by the addition of 50 μL/well scintillation fluid (Wallac). Plates are read using a Wallac Trilux counter. This is only one format of such assays; various other formats are possible, as known to one skilled in the art.
The above assay procedure can be used to determine the IC50 for inhibition and/or the inhibition constant, Ki. The IC50 is defined as the concentration of compound required to reduce the enzyme activity by 50% under the condition of the assay. The IC50 value is estimated by preparing a 10 point curve using a ½ log dilution series (for example, a typical curve may be prepared using the following compound concentrations: 3 μM, 1 μM, 0.3 μM, 0.1 μM, 0.03 μM, 0.01 μM, 0.003 μM, 0.001 μM, 0.0003 μM and 0 μM).
Aurora-A (h) is incubated with 8 mM MOPS pH 7.0, 0.2 mM EDTA, 200 μM LRRASLG (Kemptide), 10 mM MgAcetate and [γ-^33P-ATP] […]

A word on the CLint scaled: it is a measure of how fast metabolising enzymes remove a compound, apart from limits set by blood flow. Regarding `Cc1nn(C)cc1Nc1ncc(Cl)c(NC2CCN(c3ccc(C#N)cn3)CC2)n1` [Ex. 10, 6-(4-((5-chloro-2-((1,3-dimethyl-1H-pyrazol-4-yl)amino)pyrimidin-4-yl)amino)piperidin-1-yl)nicotinonitrile], in data set [1], the half-life was 5.51 min and the CLint scaled is 315 mL/min/kg.
For `Cc1c2ccc(Nc3ncc(Cl)c(NC4CCN(c5ccc(C#N)nn5)CC4)n3)cc2nn1C` [Ex. 12, 6-(4-((5-chloro-2-((2,3-dimethyl-2H-indazol-6-yl)amino)pyrimidin-4-yl)amino)piperidin-1-yl)pyridazine-3-carbonitrile], in that order: 25.3 min and 68.8 mL/min/kg.
By pIC50 is commonly meant the negative decadic logarithm of the IC50, by convention in mol/L. Regarding `CN(c1nc(Nc2cnn(C)c2)ncc1Cl)C1CCN(c2ccc(C#N)cn2)CC1` [Ex. 5, 6-(4-((5-chloro-2-((1-methyl-1H-pyrazol-4-yl)amino)pyrimidin-4-yl) (methyl)amino)piperidin-1-yl)nicotinonitrile], in data set [1], the half-life was determined as 22.9 min and the CLint scaled was 75.7 mL/min/kg. On Aurora-A (h), this molecule had a pIC50 of 7.18.
As for `Cc1c2ccc(Nc3ncc(Cl)c(NC4CCN(c5ccc(C#N)cn5)CC4)n3)cc2nn1C` [Ex. 4], in data set [1], the half-life worked out at 13.2 min and the intrinsic metabolic clearance (CLint scaled) was 131 mL/min/kg. Also, the pIC50 at Aurora-A (h) is 6.30.
On to `Cc1nn(C)cc1Nc1ncc(Cl)c(NC2CCN(c3ccc(C#N)nn3)CC2)n1` [Ex. 11, 6-(4-((5-chloro-2-((1,3-dimethyl-1H-pyrazol-4-yl)amino)pyrimidin-4-yl)amino)piperidin-1-yl)pyridazine-3-carbonitrile], for which, in data set [1], the half-life is 13.1 min and the CLint scaled was 133 mL/min/kg.
Turning to `Cn1cc(Nc2ncc(Cl)c(NC3CCN(c4ccc(C#N)cn4)CC3)n2)cn1` [Ex. 1, 6-(4-((5-chloro-2-((1-methyl-1H-pyrazol-4-yl)amino)pyrimidin-4-yl)amino)piperidin-1-yl)nicotinonitrile], in data set [1], the half-life is 40.8 min and the CLint scaled is 42.6 mL/min/kg. For the same molecule, the negative-log IC50 (pIC50) against Aurora-A (h) was 7.17.
For the molecule `Cc1cc(Nc2ncc(Cl)c(NC3CCN(c4ccc(C#N)nn4)CC3)n2)nn1C` [Ex. 13, 6-(4-((5-chloro-2-((1,5-dimethyl-1H-pyrazol-3-yl)amino)pyrimidin-4-yl)amino)piperidin-1-yl)pyridazine-3-carbonitrile], in data set [1], the half-life was 68.2 min and the intrinsic clearance (CLint scaled) is 25.5 mL/min/kg.
